Earlier results, collected in patent publication US8617286B2, “Method for increasing crop yield” (priority 2010, dated 2013).

Tested on: nitrification of ammonia nitrogen into nitrate
Details: general statement, no test described

In the case of `N#CN=C(N)N` [DCD, dicyandiamide], the “slowing of nitrification of ammonia nitrogen into nitrate” value is given as “about 80%”.
